Data: patent US5498522A, “Methods for the use of spermidine/spermine N^1 -acetyltransferase as a prognostic indicator and/or a tumor response marker” (priority 1993, dated 1996)
“Also recorded” adds a separate entry of the source.

Assays:
[1] = test system: S-adenosylmethionine decarboxylase (SAMDC); conditions: in-vitro; cited from earlier work
[2] = test system: MALME-3 human melanoma xenografts; assay: antitumor response against MALME-3 human melanoma xenografts in mice; type: in vivo; conditions: for suppression of tumor growth after cessation of treatment: every 8 hours for 6 days, most effective dose; for % T/C (tumor growth suppression) / Regrowth Delay (time for median tumor volume to reach 200 mm^3): maximally tolerated dose
Experimental: b. Anticancer effects of polyamine analog therapy are determined by assessing the antiproliferative activity on the treated solid tumor by measuring one or more responses including tumor growth suppression, tumor regression, or repression of regrowth. Tumors were measured in three dimensions and tumor volume was calculated according to the formula:
[…] where 1 represents length; w--width; and h--height. Tumor sizes were monitored 2 times/week until the median volume (V=0.4(a^2 ×b) where a is the smaller of the two perpendicular tumor diameters). As an indication of drug toxicity, animal weights were also recorded at the time of tumor volume measurement. Statistical analyses were performed on mouse tumor size and weight parameters by using the Mann-Whitney test.
Tumor growth suppression was measured by plotting the mean tumor volume versus the number of days post-inoculation with polyamine analog (growth curve analyses). Suppression is determined by comparison with the growth of untreated tumors (%T/C). More specifically,: %T/C is (treated tumor volume minus pretreatment volume) divided by (control tumor volume minus pretreatment volume)×100. Typically this is measured either when the control tumor volume reaches 1000 mm^3, or at the last day of treatment.
Tumor regression is measured as a percentage representing the average percentage of decrease in tumor volume from the largest pretreatment volume value.
Repression of regrowth is represented as regrowth delay, determined as the number of days following cessation of treatment when median group tumor volume exceeds 200 mm^3 (an arbitrary indication of regrowth which was determined statistically).
For the in-vivo treatment, 10^7 cultured MALME-3 melanoma cells were injected subcutaneously into 20 gram female nude athymic mice. After four in-vivo passages, tumor was removed and 40-50 mm^3 fragments were selected for implantation into mice via subcutaneous trocar implantation. Mice developing palpable tumors of a similar size were divided into different treatment groups comprising mice per group. Following treatment of the mice with a dosage approaching the maximally tolerated dose of the respective bis-ethyl spermine analog, the tumor cells comprising the human xenograft were removed and assayed for SSAT induction. […] Also indicated in Table 1, the level of SSAT induction in-vivo by BESPM was less than 20 fold that of BEHSPM, and the level of SSAT induction in-vivo by BENSPM was about 6 fold greater than that of BESPM. Thus, a conclusion from the results depicted in Table 1 is the rank order in effectiveness of the his-ethyl spermine analogs to induce SSAT levels in-vitro correlated well with their effectiveness to induce SSAT levels in-vivo.
The in-vivo antitumor activities of BESPM, BEHSPM, and BENSPM, were compared against various human xenografts in nude athymic mice. Cultured human tumor cells were first passaged several times in female HSD nude athymic mice. Fragments of resultant tumor were implanted into mice via subcutaneous trocar implantation. Mice of different treatment groups were treated with one or more of the three bis-ethyl spermine analogs BESPM, BEHSPM, and BENSPM. Anti-proliferative activity was monitored by antitumor responses including tumor growth suppression, tumor regression, or repression of regrowth.
As illustrated in Table 1 with MALME-3 human melanoma cells, the rank order effectiveness of three polyamine analogs in inducing SSAT levels both in-vitro and in-vivo were BENSPM>BESPM>BEHSPM, with substantial differences in induction between them. The same three polyamine analogs were analyzed for their effectiveness in inducing a potent antitumor response in-vivo. Mice developing palpable tumors of a similar size were divided into different treatment groups comprising 5 mice per treatment group, and 10 control mice per treatment group. […]

[3] = test system: spermidine/spermine N^1 -acetyltransferase (SSAT); assay: SSAT induction in cultured human tumor cell lines in-vitro; type: cell-based; conditions: for SSAT induction (FIG. 5, words) / SSAT: 48 hours
Experimental: To illustrate this embodiment, three polyamine analogs comprising bis-ethyl spermine analogs were used to treat MALME-3 human melanoma cells cultured in-vitro, and MALME-3 cells implanted as human xenografts in the athymic nude mouse model (Bernacki et al., 1992, supra). For in-vitro treatment, MALME-3 cells were maintained as a monolayer culture growing in RPMI 1640 containing 2% N-2-hydroxy-piperazine-N^1 -ethanesulfonic acid/3-N-morpholinopropanesulfonic acid pH 7.4 as a buffer, 1 mM aminoguanidine as an inhibitor of serum oxidase, and 10% of a semidefined serum substitute. Cells were seeded at 2×10^5 cells/T-75 flask and incubated 24 hours before treatment with analogues. Following treatment with 10 μM of the respective bis-ethyl spermine analog, control and treated cultured cells were trypsinized, washed, and suspended for enzyme assays and cell number determinations.
In accordance with the above methods for assaying the induction of SSAT levels in tumor cell lines treated in-vitro and xenografts treated in-vivo, the induction pattern also correlates fairly well amongst different clonal lines of a particular tumor type. This can be illustrated with melanoma clonal lines LOX, SH-1, PANUT-3, and MALME-3.
In accordance with the above methods for assaying the induction of SSAT levels in tumor cell lines treated in-vitro and xenografts treated in-vivo, the induction pattern also correlates fairly well amongst carcinomas of solid organs. This can be illustrated with malignant clonal lines A121, A549, and HT29.
As mentioned previously, cells from malignant solid tumor respond to polyamine analog therapy heterotypically. SSAT induction and antitumor response may vary not only among the solid tumor tissue type, but also with the clonal line of tumor of a particular solid tissue type. However, a correlation between the level of induction of SSAT and the potency of antitumor response has been observed in tumors of a particular solid tissue type. For example, seven human melanoma cell lines were assayed in-vitro for their response, as determined by cell growth and level of SSAT induction, to 10 μM BESPM at 48 hours post-treatment. As summarized in FIG. 5, growth among the cell lines decreases as SSAT induction increases.
To illustrate this embodiment, LOX and MALME-3 cell cultures were treated for 48 hours with 10 μm BESPM. The cells from each culture were harvested and assayed for SSAT activity. Media samples were prepared by treating the samples with 50% trichloroacetic acid to give a final concentration of 10% and then centrifuged at 15,000×g for 10 minutes. The supernatant was then filtered through a 0.22-μm filter, extracted with several volumes of ether, lyophilized, and resuspended in 10% trichloroacetic acid. N^1 -acetylspermidine levels of cells and media samples were then measured by use of high-pressure liquid chromatography. […] Similarly, N^1 -acetylspermidine levels from MALME-3 control cells, media from control cell cultures, and treated MALME-3 cells contained minimal levels of N^1 -acetylspermidine.

[4] = test system: spermidine/spermine N^1 -acetyltransferase (SSAT); conditions: cited from earlier work
[5] = MALME-3 xenograft, 40 mg/kg every 8 hours for 5 days

CCNCCCCNCCCCNCCCCNCC [BEHSPM, N^1,N^14 -bis(ethyl)homospermine]
SAMDC suppression [1]: similarly suppress ornithine and S-adenosyl-methionine decarboxylase levels | suppression of tumor growth after cessation of treatment ([2]; MALME-3 xenograft): 18 days | % T/C (tumor growth suppression) ([2]; MALME-3 xenograft): 43% | Regrowth Delay (time for median tumor volume to reach 200 mm^3) ([2]; MALME-3 xenograft): 14 days | antitumor activity ([2]; MALME-3 xenografts): less effective than BESPM | SSAT induction in-vitro ([3]; MALME-3 cells, 10 μM analog): 1108 pmol/min/10^6 cells

CCNCCCNCCCNCCCNCC [BENSPM, N^1,N^11 -bis(ethyl)norspermine]
SAMDC suppression [1]: similarly suppress ornithine and S-adenosyl-methionine decarboxylase levels | SSAT induction in-vitro, PANUT-3 versus MALME-3 ([4]; BENSPM): induced to greater levels in PANUT-3 than in MALME-3 | % T/C at 1 g ([2]; MALME-3M, BENSPM at 80 mg/kg): < 0% | Tumor Regression ([2]; MALME-3M, BENSPM at 80 mg/kg): Present | Regrowth Delay ([2]; MALME-3M, BENSPM at 80 mg/kg, dt 13 days): > 4.8 × dt | No Regrowth ([2]; MALME-3M, BENSPM at 80 mg/kg, for duration of experiment): 2/5 | lack of regrowth (FIG. 6) [2, 5]: two mice examined of the remaining five mice treated | regrowth delay (FIG. 6) [2, 5]: significant regrowth delay | tumor regression (FIG. 6) [2, 5]: showed tumor regression | suppression of tumor growth after cessation of treatment ([2]; MALME-3 xenograft): 40 days | % T/C (tumor growth suppression) ([2]; MALME-3 xenograft): 10% | Regrowth Delay (time for median tumor volume to reach 200 mm^3) ([2]; MALME-3 xenograft): 37 days | antitumor activity ([2]; MALME-3 xenografts): most effective of the three | apparent curing of xenografts on retreatment ([2]; MALME-3 xenografts, retreatment 2 weeks later): about 20% | SSAT induction in-vitro ([3]; A121 ovarian, 10 μm BENSPM): 2,700 pmol/min/10^6 cells | SSAT induction in-vitro ([3]; A549 lung, 10 μm BENSPM): 22,755 pmol/min/10^6 cells | SSAT induction in-vitro ([3]; HT29 colon, 10 μm BENSPM): 3,640 pmol/min/10^6 cells | SSAT induction in-vitro relative to BESPM ([3]; MALME-3 cells, 10 μM): 5 to 6 fold

CCNCCCNCCCCNCCCNCC [BESPM, N^1,N^12-bis(ethyl)spermine]
SAMDC suppression [1]: rapidly suppress ODC and SAMDC; also recorded: similarly suppress ornithine and S-adenosyl-methionine decarboxylase levels | SSAT levels after treatment ([4]; MALME-3, in-vitro): extreme induction of SSAT levels | suppression of tumor growth after cessation of treatment ([2]; MALME-3 xenograft): 30 days | % T/C (tumor growth suppression) ([2]; MALME-3 xenograft): 34% | Regrowth Delay (time for median tumor volume to reach 200 mm^3) ([2]; MALME-3 xenograft): 27 days | antitumor activity ([2]; MALME-3 xenografts): significant antitumor activity | SSAT induction (FIG. 5, words) ([3]; LOX and SH-1, 10 μM BESPM): lowest induction of SSAT levels | SSAT ([3]; LOX, 10 μM BESPM): 120 pmol/mg/min | SSAT induction in-vitro ([3]; LOX, 10 μm BESPM): 171 pmol/min/10^6 cells | SSAT ([3]; MALME-3, 10 μM BESPM): 12,405 pmol/mg/min | SSAT induction in-vitro ([3]; MALME-3, 10 μm BESPM (Table 2)): 19,520 pmol/min/10^6 cells | SSAT induction (FIG. 5, words) ([3]; MALME-3 and Ebey, 10 μM BESPM): highest SSAT activity | SSAT induction in-vitro relative to BEHSPM ([3]; MALME-3 cells, 10 μM): about 10 fold | SSAT induction in-vitro ([3]; PANUT-3, 10 μm BESPM): 10,343 pmol/min/10^6 cells | SSAT induction in-vitro ([3]; SH-1, 10 μm BESPM): 1100 pmol/min/10^6 cells
